Measured values from patent publication US20250319073A1, “COMPOSITIONS AND METHODS FOR THE TREATMENT OF HUNTINGTON’S DISEASE AND HTT PROTEINOPATHIES” (priority 2022, published 2025).

Legend:
[1] = test system: R6/2 mice; assay: Rotarod test in R6/2 mice; format: in vivo, mouse; settings: 5 mg/kg i.p. QD, 10 weeks of age, p<0.05, One-way ANOVA
Protocol: Study Summary—A total of 46 male R6/2 mice and 15 male wild-type littermate control mice (WT) were used in the study. The mice were genotyped and the R6/2 mice were divided into different treatment groups based on their pre-treatment body weight. The treatment with Compound (Ia) (0.5 or 5 mg/kg; 10 ml/kg, intraperitoneally (i.p.), QD) or Vehicle (10 ml/kg, i.p., QD) was started at 4 weeks of age. Body weights were measured before the treatment onset and continued twice a week until the end of the study. Fine motor kinematic analysis and rotarod test were performed at 10 weeks of age and the open field activity and clasping behavior were measured at 12 weeks of age for all mice. At 8 and 12 weeks of age the glucose uptake was measured by ^18F-FDG PET and the striatal metabolites were measured using MR spectroscopy for 9-10 mice per group. At 13 weeks of age 9-10 mice per group were subjected to tissue sample collection, and the brain and blood samples were collected. The blood samples were used to prepare peripheral blood mononuclear cells (PBMCs) on which the flow cytometry/luminescence analysis was performed for following assays: mitochondrial reactive oxygen species (ROS) (MitoSox), and ATP levels (Cell TiterGlow). […]
Rotarod Test—At 10 weeks of age all mice were subjected to rotarod test. […] The latency to fall from the rod was recorded.

[2] = Body weight of R6/2 mice under chronic treatment; format: in vivo, mouse
Protocol: Study Summary-A total of 46 male R6/2 mice and 15 male wild-type littermate control mice (WT) were used in the study. The mice were genotyped and the R6/2 mice were divided into different treatment groups based on their pre-treatment body weight. The treatment with Compound (Ia) (0.5 or 5 mg/kg; 10 ml/kg, intraperitoneally (i.p.), QD) or Vehicle (10 ml/kg, i.p., QD) was started at 4 weeks of age. Body weights were measured before the treatment onset and continued twice a week until the end of the study. Fine motor kinematic analysis and rotarod test were performed at 10 weeks of age and the open field activity and clasping behavior were measured at 12 weeks of age for all mice. At 8 and 12 weeks of age the glucose uptake was measured by ^18F-FDG PET and the striatal metabolites were measured using MR spectroscopy for 9-10 mice per group. At 13 weeks of age 9-10 mice per group were subjected to tissue sample collection, and the brain and blood samples were collected. The blood samples were used to prepare peripheral blood mononuclear cells (PBMCs) on which the flow cytometry/luminescence analysis was performed for following assays: mitochondrial reactive oxygen species (ROS) (MitoSox), and ATP levels (Cell TiterGlow). […] Body Weights-Body weights were measured at 4 weeks of age (pre-treatment) and twice a week until the end of the study. […]

Compound: Cc1cc(O)cc(C)c1C[C@H](NC(=O)[C@H](N)CCCNC(=N)N)C(=O)N[C@@H](CCCCN)c1nc(Cc2ccccc2)no1.Cl.Cl [Compound (Ia), (R)-2-amino-N—((S)-1-(((S)-5-amino-1-(3-benzyl-1,2,4-oxadiazol-5-yl)pentyl)amino)-3-(4-hydroxy-2,6-dimethylphenyl)-1-oxopropan-2-yl)-5-guanidinopentanamide]
- latency to fall in rotarod compared to vehicle treated R6/2 mice [1]: increased latency
- body weight compared to vehicle treated R6/2 mice ([2]; 5 mg/kg i.p. QD): non-significantly higher level
- body weight, treated R6/2 groups vs vehicle treated R6/2 mice ([2]; 0.5 or 5 mg/kg i.p. QD from 4 to 13 weeks of age, p>0.05, Mixed-effects model (REML)): no significant differences
